This assay in a line: Beef bouillon taste evaluation by a panel of experienced tasters. The note with it: 40 ppb dosed to beef bouillon made from bouillon cubes; versus reference bouillon. As for the experimental part:
A beef bouillon was prepared using bouillon cubes obtained from a local supermarket.
For `O=C(O)CCCCCCCC(=O)NC(Cc1c[nH]c2ccccc12)C(=O)O` (stereo not drawn) [Example 1, 9-((1-Carboxy-2-(1H-indol-3-yl)ethyl)amino)-9-oxononanoic acid], the “taste of the bouillon compared with the reference (panel agreement)” value was “more umami, more salty and more full than the reference”.
With `O=C(O)CCCCCCCC(=O)N1CCCC1C(=O)O` (stereo not drawn) [Example 2, 1-(8-Carboxyoctanoyl)pyrrolidine-2-carboxylic acid], the “taste of the bouillon compared with the reference (panel agreement)” value is “more salt impact, and more umami taste than the reference”.
The same measure for `O=C(O)CCCCCCCC(=O)NCCCC(=O)O` [Example 3, 9-((3-Carboxypropyl)amino)-9-oxononanoic acid]: “more salty and had more “bite” than the reference”.
